Source: US20240368163A1, “COMPOUNDS AND METHODS FOR MODULATING SPLICING” (REMIX THERAPEUTICS INC., priority 2021, published 2024)
Like-named read-outs stand apart in the source and are kept apart here.

Columns and labels:
[1] = Transwell assay for membrane efflux and permeability; format: in vitro ADME, Canine; settings: dog; MDCK-BCRP or MDCKII-MDR1 transwell, test compound 1 μM, 2 hours at 37° C.
Excerpt: Compounds described herein were screened for cell membrane permeability and efflux in a transwell assay using Madin-Darby Canine Kidney (MDCK) cells expressing Breast Cancer Resistance Protein (BCRP) or subclone MDCKII cells expressing Multidrug Resistance Protein 1 (MDR1).
MDCK-BCRP or MDCKII-MDR1 Cells: The Netherlands Cancer Institute, High Glucose Dulbecco's Modified Eagle's Medium (DMEM): Gibco/Thermo Fisher Scientific, Fetal Bovine Serum (FBS): Coming, Hank's Balanced Salt Solution (HBSS) and Trypsin/EDTA: Gibco/Thermo Fisher Scientific, HTS Transwell-96 Well Permeable Supports: Coming Corporation, Millicell Epithelial Volt-Ohm: Millipore, Cellometer® Vision: Nexcelom Bioscience LLC, Infinite 200 PRO microplate reader: Tecan, MTS2/4 orbital shaker: IKA Labortechnik, HEPES/Penicillin/Streptomycin: Solarbio.
MDCK-BCRP or MDCKII-MDR1 cells were seeded to each of the wells of the transwell plate at a density of 1.6×10^6 cells/mL and the plate was incubated for 4-8 days with medium changes every two days. To perform the drug transport assay, cell monolayers were first washed three times with pre-warmed HBSS and then incubated with gentle shaking (150 rpm) for 30 min at 37° C. Stock solutions of test compounds (e.g., exemplary compounds of Formulas (I), (II), and (III)) and control compounds (e.g., metoprolol, prazosin, and/or imatinib) were prepared in DMSO and adjusted to a working solution using HBSS. The final concentration of test compounds was 1 μM with DMSO; 0.5%. The plates were incubated at 37° C. for 2 hours.

HTT = assay: Splicing RT-qPCR assay, HTT mRNA canonical junction (CJ) and alternative junction (AJ); format: cell-based, human; settings: for AC50: increase in AJ mRNA
How it was run: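 Cells: A673 (DMEM/10% FBS) or K562 (IMDM/10% FBS). Dose: 11-pt 3-fold, top 10 uM final, ≤0.25% DMSO, 24 h, 37 °C. Readout: RT-qPCR of CJ/AJ exon junctions, ΔΔCt vs housekeeper and DMSO, RQ to % response.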

[2] = Homo sapiens, 24 h, A673 or K562 cells, 24 hours treatment, RT-qPCR
[3] = Homo sapiens, RT-qPCR panel, canonical junction mRNA, compound concentration having 50% response in CJ decrease, read-out: HTT IC50 (decrease in CJ mRNA levels)
[4] = Homo sapiens, gene panel, CJ qPCR, protocol of Example 142, read-out: HTT IC50 (decrease in CJ mRNA levels)

Structure (SMILES)	efflux ratio at 2 h, 1 μM [1]	AC50 (HTT; [2]) [µM]	IC50 (HTT; [3]) [µM]	Papp at 2 h, 1 μM [1] [×10⁻⁶ cm/s]	IC50 (HTT; RT-qPCR panel, canonical junction mRNA, compound concentration having 50% response in CJ decrease, read-out: HTT IC50 (decrease in CJ mRNA levels)) [µM]	IC50 (HTT; decrease in CJ mRNA, A673 or K562 cells, 24 hours treatment, RT-qPCR, read-out: HTT CJ IC50) [µM]	IC50 (HTT; Homo sapiens, 24 h, decrease in CJ mRNA, A673 or K562 cells, 24 hours treatment, RT-qPCR, read-out: HTT CJ IC50) [µM]	IC50 (HTT; [4]) [µM]
Fc1cc(-c2ccc(OC3CC4CC(F)(F)C(C3)N4)nn2)c2[nH]ncc2c1-c1cn[nH]c1 (stereo not drawn) [Compound 313, 7-[6-({6,6-difluoro-8-azabicyclo[3.2.1]octan-3-yl}oxy)pyridazin-3-yl]-5-fluoro-4-(1H-pyrazol-4-yl)-1H-indazole]	< 1.5	0.1 to 1	< 0.1					
Fc1cc(-c2ccc(O[C@@H]3C[C@H]4CC[C@@H](C3)N4)nn2)c2sncc2c1-c1cn[nH]c1 [Compound 327]	> 5	< 0.1	< 0.1	2 to 6				
COc1cc(-c2ccc(-c3ccc(N(C)C4CC(C)(C)NC(C)(C)C4)nn3)c3scnc23)cnn1 [Compound 330]	> 5	< 0.1	< 0.1	2 to 6				
CC(C)(C)NC1CCN(c2ccc(-c3ccc(-c4cn[nH]c4)c4ncsc34)nn2)C1 (stereo not drawn) [Compound 336]	> 5			2 to 6	0.1 to 1	0.1 to 1		
c1nc2c(-c3cn[nH]c3)ccc(-c3ccc(N4CCC(NC5CC5)C4)nn3)c2s1 (stereo not drawn) [Compound 337]	< 1.5	1 to 10	> 10	2 to 6			> 10	
Fc1cc(-c2ccc(N[C@@H]3C[C@H]4CC[C@@H](C3)N4)nn2)c2scnc2c1-c1cn[nH]c1 [Compound 339]	1.5 to 5	< 0.1	< 0.1	< 2				
Cc1ncc(-c2ccc(-c3ccc(O[C@@H]4C[C@H]5CC[C@@H](C4)N5)nn3)c3scnc23)s1 [Compound 348, 7-{6-[(exo)-8-azabicyclo[3.2.1]octan-3-yloxy]pyridazin-3-yl}-4-(2-methyl-1,3-thiazol-5-yl)-1,3-benzothiazole]	> 5	0.1 to 1	< 0.1	< 2				
COc1cc(-c2ccc(-c3ccc(O[C@@H]4C[C@H]5CC[C@@H](C4)N5)nn3)c3scnc23)cnn1 [Compound 362]	> 5	< 0.1	< 0.1	2 to 6				
Fc1ccn(-c2ccc(-c3ccc(O[C@@H]4C[C@H]5CC[C@@H](C4)N5)nn3)c3scnc23)n1 [Compound 363]	1.5 to 5	0.1 to 1	< 0.1	< 2				
CN(c1ncc(-c2ccc(-n3cccn3)c3[nH]ncc23)nn1)[C@@H]1C[C@H]2CCC[C@@H](C1)N2 [Compound 551]	> 5		< 0.1	2 to 6				
c1cnn(-c2ccc(-c3cnc(N[C@@H]4C[C@H]5CC[C@@H](C4)N5)nn3)c3cn[nH]c23)c1 [Compound 556]	> 5		< 0.1	2 to 6				
c1cnn(-c2ccc(-c3cnc(N[C@@H]4C[C@H]5CCC[C@@H](C4)N5)nn3)c3cn[nH]c23)c1 [Compound 561]	> 5		< 0.1	2 to 6				
CC(C)(C)C1CN(c2ncc(-c3ccc(-n4cccn4)c4[nH]ncc34)nn2)CCN1 (stereo not drawn) [Compound 572]	< 1.5		< 0.1	< 2				
CN(c1ncc(-c2ccc(-n3cncn3)c3[nH]ncc23)nn1)[C@@H]1C[C@H]2CCC[C@@H](C1)N2 [Compound 574]	> 5		< 0.1	< 2				
CN(c1ncc(-c2ccc(-n3ccnn3)c3[nH]ncc23)nn1)[C@@H]1C[C@H]2CCC[C@@H](C1)N2 [Compound 576]	> 5		< 0.1	< 2				
Cc1ncc(-c2ccc(-c3cnc(N(C)[C@@H]4C[C@H]5CCC[C@@H](C4)N5)nn3)c3scnc23)s1 [Compound 578]	> 5		< 0.1	< 2				
Cc1nc(-c2ccc(-c3cnc(N(C)[C@@H]4C[C@H]5CCC[C@@H](C4)N5)nn3)c3scnc23)cs1 [Compound 579]	> 5		0.1 to 1	< 2				
Cc1cc(-c2ccc(-c3cnc(N(C)[C@@H]4C[C@H]5CCC[C@@H](C4)N5)nn3)c3scnc23)sn1 [Compound 580]	> 5		< 0.1	< 2				
CC(C)(C)[C@H]1CN(c2ncc(-c3ccc(-n4cccn4)c4[nH]ncc34)nn2)CCN1 [Compound 581]	< 1.5		< 0.1	2 to 6				

Structure (SMILES)	efflux ratio at 2 h, 1 μM [1]	AC50 (HTT; [2]) [µM]	IC50 (HTT; [3]) [µM]	Papp at 2 h, 1 μM [1] [×10⁻⁶ cm/s]	IC50 (HTT; RT-qPCR panel, canonical junction mRNA, compound concentration having 50% response in CJ decrease, read-out: HTT IC50 (decrease in CJ mRNA levels)) [µM]	IC50 (HTT; decrease in CJ mRNA, A673 or K562 cells, 24 hours treatment, RT-qPCR, read-out: HTT CJ IC50) [µM]	IC50 (HTT; Homo sapiens, 24 h, decrease in CJ mRNA, A673 or K562 cells, 24 hours treatment, RT-qPCR, read-out: HTT CJ IC50) [µM]	IC50 (HTT; [4]) [µM]
COc1nc(-c2ccc(N(C)[C@@H]3C[C@H]4CC[C@@H](C3)N4)nn2)ccc1-c1cn[nH]c1 [Compound 906]	> 5			< 2				< 0.1
CN(c1ccc(-c2ccc(-c3cn[nH]c3)cn2)nn1)[C@@H]1C[C@H]2CC[C@@H](C1)N2 [Compound 915]	< 1.5			< 2				0.1 to 1
COc1nc(-c2ccc(OC3CC(C)(C)NC(C)(C)C3)nn2)ccc1-c1cn[nH]c1 [Compound 917]	> 5			2 to 6				0.1 to 1
COc1nc(-c2ccc(OC3CC(C)(C)NC(C)(C)C3)nn2)ccc1-c1cnn(C)c1 [Compound 918]	> 5			2 to 6				0.1 to 1
COc1nc(-c2ccc(N(C)C3CC(C)(C)NC(C)(C)C3)nn2)ccc1-c1cn[nH]c1 [Compound 919]	> 5			< 2				< 0.1
COc1nc(-c2ccc(N(C)C3CC(C)(C)NC(C)(C)C3)nn2)ccc1-c1cnn(C)c1 [Compound 920]	> 5			2 to 6				0.1 to 1
CN(c1ccc(-c2ccc(-c3cn[nH]c3)c(F)n2)nn1)[C@@H]1C[C@H]2CC[C@@H](C1)N2 [Compound 922]	> 5			< 2				< 0.1
CN(c1ccc(-c2ccc(-c3cn[nH]c3)c(C#N)n2)nn1)[C@@H]1C[C@H]2CC[C@@H](C1)N2 [Compound 930]	> 5			< 2				< 0.1
COc1nc(-c2ccc(N(C)[C@@H]3C[C@H]4CC[C@@H](C3)N4)nn2)cc(F)c1-c1cn[nH]c1 [Compound 931]	> 5			< 2				< 0.1
CN(c1ccc(-c2ccc(-c3cn[nH]c3)c(OC3CC3)n2)nn1)[C@@H]1C[C@H]2CC[C@@H](C1)N2 [Compound 939]	> 5			< 2				< 0.1
COc1cc(-c2ccc(-c3ccc(N(C)[C@@H]4C[C@H]5CC[C@@H](C4)N5)nn3)nc2OC)ncn1 [Compound 954]	> 5			< 2				1 to 10
CN(c1ccc(-c2ccc(-c3cn[nH]c3)c(OC(F)F)n2)nn1)[C@@H]1C[C@H]2CC[C@@H](C1)N2 [Compound 955]	> 5			< 2				< 0.1
COc1nc(-c2ccc(N3CCC(NC(C)(C)C)C3)nn2)ccc1-c1cn[nH]c1 (stereo not drawn) [Compound 956]	> 5			2 to 6				< 0.1
COc1nc(-c2ccc(N(C)[C@@H]3C[C@H]4CC[C@@H](C3)N4)nn2)ccc1-c1ccnc(O)c1 [Compound 961]	1.5 to 5			< 2				0.1 to 1
COc1nc(-c2ccc(O[C@@H]3C[C@H]4CC[C@@H](C3)N4)nn2)ccc1-c1cnc(C)s1 [Compound 962]	1.5 to 5			2 to 6				0.1 to 1
COc1nc(-c2ccc(OC3CC(C)(C)NC(C)(C)C3)nn2)cc(F)c1-c1cn[nH]c1 [Compound 965]	> 5			2 to 6				< 0.1
CCOc1nc(-c2ccc(OC3CC(C)(C)NC(C)(C)C3)nn2)cc(F)c1-c1cn[nH]c1 [Compound 966]	> 5			2 to 6				< 0.1
CCOc1nc(-c2ccc(OC3CC(C)(C)NC(C)(C)C3)nn2)ccc1-c1cn[nH]c1 [Compound 967]	1.5 to 5			2 to 6				< 0.1
